Six compounds from patent US11472799B2, “Serine threonine kinase (AKT) degradation / disruption compounds and methods of use” (Icahn School of Medicine at Mount Sinai, priority 2018, dated 2022) can be followed below.

Assay [1] deals with AKT. Briefly: Time course Western blot of AKT degradation in BT474 cells. The class given is cell-based, human. Particulars: for time point for the most significant AKT degradation: BT474 cells (FIGS. 2 and 5); for time-dependent reduction of AKT, p-AKT, P-PRAS40 (T246), and P-S6 (S240/244) protein levels: BT474 cells, 1 μM. The method, then: (§1) Cells were lysed in 2× sample buffer (125 mM Tris-HCl at pH 6.8, 10% βME, 2% SDS, 20% glycerol, 0.05% Bromophenol Blue, 8 M urea). Protein lysates were loaded into 4-12% Bis-Tris gels and resolved by electrophoresis. Samples were then blotted on PVDF membrane (Millipore IPVH00010) using the wet transfer technique (Invitrogen). Membranes were blocked in 5% milk-TBST for 1 hour, washed in TBST for 10 min, and incubated in primary antibody in 5% milk-TBST or 5% BSA-TBST at 4° C. for 16 h. Membranes were rinsed (3×6 min) in TBST and incubated in horseradish peroxidase-conjugated secondary antibodies in 5% milk-TBST for 1 hour and rinsed again in TBST (3×6 min). Membranes were visualized using the chemiluminescence system (Thermo 34080, 37075) on autoradiography film (Denville E3018). Primary Antibodies: R-actin (Sigma A5316), p-AKT (Ser473 CST-9721), total AKT (CST-9272), p-S6 (Ser240/244, CST-5364), p-PRAS40 (Thr246, CST-2997). Secondary Antibodies: Mouse (Thermo 31432), Rabbit (Thermo 31460).
In general terms: Immunoblotting shows a protein as a band on a membrane.

Assay [2] relates to AKT. Briefly: Western blot of AKT protein levels in PC-3 cells. The class given is cell-based, human. The settings on record: for suppression of AKT protein level and AKT activity: 1 μM (FIGS. 11 and 12). How it is done:
PC-3, U87MG, HCC1143, MDA-MB-231, MDA-MB-468, BT474 and MCF-7 cell lines were purchased from ATCC. Cell lines were regularly tested in the lab for mycoplasma. All cells were cultured at 37° C. and 5% CO2. PC-3, U87MG, MDA-MB-231, MCF-7 and BT474 cells were cultured in 1×DMEM (Corning, 10-013-CV) with 10% fetal bovine serum (Atlanta Biologicals S11150) and 1× Penicillin/Streptomycin. HCC1143 cells were cultured in RPMI (Corning, 10-040-CV) medium with 10% fetal bovine serum (Atlanta Biologicals S11150) and 1× Penicillin/Streptomycin. Cells were split using 0.05% or 0.25% trypsin (Corning 25-051-Cl or 25-053-Cl, respectively) before they reached full confluence and media was changed every 3-4 days. Cells were treated with compounds individually at different concentrations for 24 hrs. Cells were treated with DMSO, VHL, or PML alone as controls.
as §1

The test system of assay [3] is AKT. Briefly: Western blot of AKT protein levels in MDA-MB-468 cells. The settings on record: 0.3 μM, 1 μM, 3 μM, or 10 μM for 24 h. The class given is cell-based. The method, then:
as §1

Assay [4] relates to AKT. The experiment in a line: Western blot of AKT protein levels in U87MG cells. It is filed as cell-based. Particulars: 0.3 μM, 1 μM, 3 μM, or 10 μM for 24 h. How it is done:
as §1

The subject of assay [5] is AKT. Briefly: Western blot of AKT protein levels and downstream signaling in BT474 cells. The class given is cell-based, human. In outline: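 Lysates were immunoblotted with chemiluminescent detection for p-AKT Ser473, total AKT, p-S6 Ser240/244 and p-PRAS40 Thr246, using actin as loading control.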
The mark [6] stands for this setting: 0.3 μM, 1 μM, 3 μM, or 10 μM for 24 h (FIG. 4B).

Structures are written as SMILES.

For the compound `Cc1ncsc1-c1ccc([C@H](C)NC(=O)[C@@H]2C[C@@H](O)CN2C(=O)[C@@H](NC(=O)CCCCCCCCCCNC(=O)CCNC[C@@H](C(=O)N2CCN(c3ncnc4c3[C@H](C)C[C@H]4O)CC2)c2ccc(Cl)cc2)C(C)(C)C)cc1` [XF042-162, (2S,4R)-1-((S)-2-(11-(3-(((S)-2-(4-chlorophenyl)-3-(4-((5R,7R)-7-hydroxy-5-methyl-6,7-dihydro-5H-cyclopenta[d]pyrimidin-4-yl)piperazin-1-yl)-3-oxopropyl)amino)propanamido)undecanamido)-3,3-dimethylbutanoyl)-4-hydroxy-N-((S)-1-(4-(4-methylthiazol-5-yl)phenyl)ethyl)pyrrolidine-2-carboxamide], in assay [1], the “time point for the most significant AKT degradation” value came to 24 h; the “time-dependent reduction of AKT, p-AKT, P-PRAS40 (T246), and P-S6 (S240/244) protein levels” value is listed as “time-dependently reduce”.
On to `NC1(C(=O)N[C@@H](CCO)c2ccc(Cl)cc2)CCN(c2ncnc3[nH]ccc23)CC1` [AZD5363, 4-amino-N-[(1S)-1-(4-chlorophenyl)-3-hydroxypropyl]-1-(7H-pyrrolo[2,3-d]pyrimidin-4-yl)piperidine-4-carboxamide, reference compound], for which the AKT protein levels result in assay [2] (setting [6]) is “no effect”; in assay [3], “no effect”; in assay [4] it was “no effect”; in assay [5] (1 μM, 5 μM, or 10 μM for 24 h), “no effect”; in assay [5] (0.01-1 μM for 24 h (FIG. 4A)), “no effect”. The pAKT levels entry in assay [2] (setting [6]) was “increased”; in assay [3], “increased”; in assay [4], “increased”; in assay [5] (1 μM, 5 μM, or 10 μM for 24 h), “increased”; in assay [5] (0.01-1 μM for 24 h (FIG. 4A)), “increased”.
As for `Cc1ncsc1-c1ccc(CNC(=O)[C@@H]2C[C@@H](O)CN2C(=O)[C@@H](NC(=O)CCCCCCCCCCNC(=O)CCNC[C@@H](C(=O)N2CCN(c3ncnc4c3[C@H](C)C[C@H]4O)CC2)c2ccc(Cl)cc2)C(C)(C)C)cc1` [XF038-166A, (2S,4R)-1-((S)-2-(11-(3-(((S)-2-(4-chlorophenyl)-3-(4-((5R,7R)-7-hydroxy-5-methyl-6,7-dihydro-5H-cyclopenta[d]pyrimidin-4-yl)piperazin-1-yl)-3-oxopropyl)amino)propanamido)undecanamido)-3,3-dimethylbutanoyl)-4-hydroxy-N-(4-(4-methylthiazol-5-yl)benzyl)pyrrolidine-2-carboxamide], in assay [1], the “time point for the most significant AKT degradation” value stood at 24 h; the “time-dependent reduction of AKT, p-AKT, P-PRAS40 (T246), and P-S6 (S240/244) protein levels” value was “time-dependently reduces”. For the same compound, the “suppression of AKT protein level and AKT activity” value (from here on “suppression”) in assay [5] (Western blot (FIGS. 1, 3, 4)) is “effective in suppressing both AKT protein level and AKT activity”.
As to `CCn1c(-c2nonc2N)nc2c(C#CC(C)(C)O)ncc(OCCCNCCCC(=O)NCCCCCCCNc3cccc4c3C(=O)N(C3CCC(=O)NC3=O)C4=O)c21` (stereo not drawn) [XF067-112, 4-((3-((2-(4-amino-1,2,5-oxadiazol-3-yl)-1-ethyl-4-(3-hydroxy-3-methylbut-1-yn-1-yl)-1H-imidazo[4,5-c]pyridin-7-yl)oxy)propyl)amino)-N-(7-((2-(2,6-dioxopiperidin-3-yl)-1,3-dioxoisoindolin-4-yl)amino)heptyl)butanamide], in assay [2], the “suppression” value is “effective in suppressing AKT protein level and AKT activity”.
As to `CCn1c(-c2nonc2N)nc2c(C#CC(C)(C)O)ncc(OCCCNCCCC(=O)NCCCCCCCC(=O)N[C@H](C(=O)N3C[C@H](O)C[C@H]3C(=O)NCc3ccc(-c4scnc4C)cc3)C(C)(C)C)c21` [XF067-98, (2S,4R)-1-((S)-2-(8-(4-((3-((2-(4-amino-1,2,5-oxadiazol-3-yl)-1-ethyl-4-(3-hydroxy-3-methylbut-1-yn-1-yl)-1H-imidazo[4,5-c]pyridin-7-yl)oxy)propyl)amino)butanamido)octanamido)-3,3-dimethylbutanoyl)-4-hydroxy-N-(4-(4-methylthiazol-5-yl)benzyl)pyrrolidine-2-carboxamide], in assay [2], the “suppression” value was “effective in suppressing AKT protein level and AKT activity”.
Take `CCn1c(-c2nonc2N)nc2c(C#CC(C)(C)O)ncc(OCCCNCCCC(=O)NCCCCCCCCCC(=O)N[C@H](C(=O)N3C[C@H](O)C[C@H]3C(=O)NCc3ccc(-c4scnc4C)cc3)C(C)(C)C)c21` [XF067-100, (2S,4R)-1-((S)-2-(10-(4-((3-((2-(4-amino-1,2,5-oxadiazol-3-yl)-1-ethyl-4-(3-hydroxy-3-methylbut-1-yn-1-yl)-1H-imidazo[4,5-c]pyridin-7-yl)oxy)propyl)amino)butanamido)decanamido)-3,3-dimethylbutanoyl)-4-hydroxy-N-(4-(4-methylthiazol-5-yl)benzyl)pyrrolidine-2-carboxamide]: the “suppression” value in assay [2] was “effective in suppressing AKT protein level and AKT activity”.
